From patent EP4685152A1, “PEPTIDE BINDING TO LAG-3 AND USE THEREOF” (Kyungpook National University Industry-Academic Cooperation …, priority 2023, dated 2024)

Tests used:
LAG-3 [1] = molecular target: T1, LAG-3 (Homo sapiens, UniProt P18627); test: Peptide binding to LAG-3-transfected cells by immunofluorescence microscopy; type: cell-based; parameters: GFP; host or cells: HEK-293T; settings: red fluorescent (TAMRA) peptide 25 µM; LAG-3-transfected Hek-293T cells compared to non-transfected control cells
T1 sequence (P18627 23-525): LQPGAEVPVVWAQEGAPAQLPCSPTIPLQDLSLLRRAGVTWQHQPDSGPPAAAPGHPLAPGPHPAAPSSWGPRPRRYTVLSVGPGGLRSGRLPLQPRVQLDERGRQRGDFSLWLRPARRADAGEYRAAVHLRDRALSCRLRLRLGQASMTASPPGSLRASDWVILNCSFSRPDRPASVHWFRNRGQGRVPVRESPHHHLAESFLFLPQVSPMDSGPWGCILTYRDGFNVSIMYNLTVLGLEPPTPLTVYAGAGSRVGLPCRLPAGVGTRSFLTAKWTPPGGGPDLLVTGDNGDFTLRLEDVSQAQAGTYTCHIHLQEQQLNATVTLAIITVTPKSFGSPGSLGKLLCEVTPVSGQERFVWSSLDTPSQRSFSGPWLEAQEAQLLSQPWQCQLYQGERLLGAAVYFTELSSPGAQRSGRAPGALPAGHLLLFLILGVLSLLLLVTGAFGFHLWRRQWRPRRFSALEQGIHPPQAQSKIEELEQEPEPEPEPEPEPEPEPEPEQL
Description: Hek-293T cells (1.25×10^5) were seeded in 4-well chamber slides, transfected with human LAG-3 plasmid, and […]. Non-transfected cells were used as a control group. The next day, cells were washed twice with phosphate buffer and reacted with 1% BSA at room temperature for 1 hour to reduce nonspecific binding of peptides. Afterwards, cells were reacted with TAMRA-conjugated peptide at a concentration of 25 µM at 4°C for 1 hour. After fixation, cells were washed, counterstained with DAPI, treated with an anti-fade reagent to preserve fluorescence, and analyzed using a confocal microscope (Nanoscope System).
(§1) To determine the degree of binding of the peptide to LAG-3, a peptide labeled with a red fluorescent reagent was synthesized and treated in Hek-293T cells transfected with LAG-3 followed by observation under an immunofluorescence microscope. Non-transfected cells were used as a control group. Meanwhile, Jurkat T cells stimulated with PMA, ionomycin, and CQ to increase expression of LAG-3 were treated with the peptide, and binding was observed using a flow cytometer. Unstimulated Jurakt T cells were used as a control group.

LAG-3 [2] = molecular target: T1, LAG-3; test: Competitive binding with LAG-3 blocking antibody, flow cytometry on stimulated Jurkat T cells; type: cell-based; settings: LAG-3 blocking antibody 10 µg/ml first, then peptide 10 µM, compared to untreated control group
Description: Similarly, for flow cytometry, Jurkat T cells (1×10^6) stimulated with PMA (50 ng/ml), ionomycin (1 µg/ml), and CQ (100 µM) were harvested and suspended in culture medium containing 1% BSA for 1 hour at room temperature to block nonspecific binding. Afterwards, cells were blocked with human LAG-3 blocking antibody (10 µg/ml) at 4°C for 30 minutes and then reacted with fluorescein isothiocyanate-conjugated peptide at a concentration of 10 µM at 4°C for 1 hour. After washing several times, 300 µl of cell suspension suspended in phosphate buffer was applied to Attune NxT flow cytometry (Thermo Fisher Scientific).

LAG-3 [3] = molecular target: T1, LAG-3; test: Peptide binding to stimulated Jurkat T cells by flow cytometry; type: cell-based; settings: FITC-labeled peptide 10 µM; Jurkat T cells stimulated with PMA, ionomycin, CQ compared to unstimulated control cells
Description: For flow cytometry, Jurkat T cells (1×10^6) stimulated with PMA (50 ng/ml), ionomycin (1 µg/ml), and CQ (100 µM) were harvested and suspended in culture medium containing 1% BSA for blocking at room temperature for 1 hour. Afterwards, the cells were further reacted with fluorescein isothiocyanate-labeled LAG-3 binding peptide (10 µM) at 4°C for 1 hour. After washing several times, 300 µl of cell suspension suspended in phosphate buffer was applied to Attune NxT flow cytometry (Thermo Fisher Scientific).
as §1

LAG-3 [4] = molecular target: T1, LAG-3; test: Competitive binding with LAG-3 blocking antibody, immunofluorescence microscopy on LAG-3-transfected cells; type: cell-based; parameters: GFP; host or cells: HEK-293T; settings: LAG-3-transfected Hek-293T cells; LAG-3 blocking antibody 10 µg/ml first, then peptide 25 µM; compared to group without antibody
Description: Hek-293T cells (1.25×10^5) were seeded in 4-well chamber slides and transfected with human LAG-3 plasmid, and the next day, the cells were washed twice with phosphate buffer and reacted with 1% BSA at room temperature for 1 hour to reduce nonspecific binding. Afterwards, cells were blocked with human LAG-3 blocking antibody (10 µg/ml) at 4°C for 30 minutes, and then reacted with TAMRA-conjugated peptide at a concentration of 25 µM at 4°C for 1 hour. After fixation, cells were washed, counterstained with DAPI, treated with an anti-fade reagent to preserve fluorescence, and analyzed using a confocal microscope (Nanoscope System).

Jurkat T cells = test: T-cell activation assay (IL-2 ELISA); type: cell-based, human; settings: stimulated Jurkat T cells under co-culture of HepG2 cells, HepG2 cell culture medium, or recombinant FGL-1 (10 µg/ml); peptide 50 µM, antibody 10 µg/ml; 24 hours
Description: Jurkat T cells (1×10^6) were inoculated into a T25 flask and stimulated for 24 hours using PMA (50 ng/ml), ionomycin (1 µg/ml), and CQ (100 µM). HepG2 cells (5×10^3) were inoculated in a 96-well plate to induce secretion of FGL-1 for 48 hours. To co-culture the two types of cells, stimulated Jurkat T cells (2.5×10^4) were mixed with HepG2 at a ratio of 1:5. Similarly, for indirect co-culture, stimulated Jurkat T cells (2.5×10^4) were mixed with HepG2 cell culture medium. Finally, to observe the direct effect, stimulated Jurkat T cells (2.5×10^4) were treated with recombinant FGL-1 (10 µg/ml) protein. […] Afterwards, culture was carried out for an additional 24 hours for reaction. Control peptides were also used for comparison. After each culture time, the supernatant was harvested, and IL-2 secretion was measured using an ELISA kit for measuring human IL-2.
Investigation was made on whether the interaction between FGL-1 secreted from HepG2 hepatoma cells and LAG-3 of T cells inhibits T cell activity and, if so, whether it is blocked by a LAG-3 binding peptide. For this purpose, in the first experiment, Jurkat T cells were cultured with stimulation for 24 hours using PMA, ionomycin, and CQ. HepG2 cells were cultured in 96-well plates for 48 hours for FGL-1 secretion. […]

LAG-3 [5] = molecular target: T1, LAG-3; test: Phage binding ELISA on LAG-3-transfected or non-transfected cells; type: cell-based; parameters: GFP; host or cells: HEK-293T; settings: phage clone 3 among 13 selected phage clones; transfected or non-transfected Hek-293T cells; OD 450 nm
Description: Hek-293T cells (2.5×10^4) were seeded in a 96-well plate and transfected with LAG-3 plasmid. Culture was performed for 48 hours. Non-transfected Hek-293T cells were used as a control group. Plates were blocked with 10 mg/ml BSA for 1 hour at room temperature. After washing the wells six times with Tris-buffered saline-Tween 20 (0.1%), 100 µl of phage clones (1×10^9 pfu/well) were added and reacted at 4°C for 1 hour. After washing, horse-radish peroxidase (HRP)-conjugated T7 tail fiber antibody (diluted 1:10,000 in blocking buffer) was added and reacted at room temperature for 1 hour. After washing the plate six more times, a substrate consisting of 3,3',5,5'-tetramethylbenzidine was added and reacted at room temperature for 10-15 minutes. The reaction was finally stopped by adding 100 µl of 2 M H2SO4 (stop solution), and the plates were analyzed at 450 nm with a microplate reader.

[6] = molecular target: T2, cell lysate overexpressing LAG-3 (Homo sapiens, UniProt P18627); test: Pull-down with biotin-peptide and streptavidin beads, immunoblotting; cell lysate; type: binding; settings: cell lysate overexpressing LAG-3, biotin-labeled peptides; compared to the control group
T2 construct: GFP; host or cells: HEK-293T
T2 sequence (P18627 23-525): T1 sequence (P18627 23-525)
Description: (§2) The binding specificity of the LAG-3 binding peptide was measured by pull-down analysis. After pull-down with LAG-3 binding peptide using human recombinant LAG-3 protein, it was applied to immunoblotting using LAG-3 antibody. In the same manner, cell lysates with LAG-3 overexpressed were […] using human LAG-3 plasmid DNA and then subjected to immunoblotting using LAG-3 antibodies.

[7] = system: MC38 mouse colon cancer cells; test: In-vivo antitumor therapy, syngeneic MC38 mouse tumor model; parameters: species or system C57BL/6 mice; settings: compared to control group and phosphate buffer group; 10 mg/kg; peptide intravenously 6 times, antibody intraperitoneally 3 times
Description: 6-8-week-old C57BL/6 mice were purchased. Mice were bred and kept under the guidelines of the Institutional Animal Care and Use Committee (IACUC) of Kyungpook National University (2023-0184). Tumors were injected into the lower right flank of mice. For in-vivo antitumor treatment, mice were randomly selected and grouped when tumor size reached approximately 100-150 mm^3. Thereafter, the peptide was injected intravenously three times a week for two weeks at a dose of 10 mg/kg, and similarly the antibody was injected intraperitoneally three times at the same dose. Tumor size was measured using a digital caliper, and tumor volume was calculated using the formula (V = length × width^2 × 0.52) (where length (L) is the longest dimension, and width (W) is the shortest dimension, parallel to the mouse body). All mice were checked for ulcer severity after treatment, treatment was terminated when the tumor size reached approximately 3000 mm^3, and the mice were sacrificed.
To identify the anticancer effect in a syngeneic mouse tumor model, LAG-3 binding peptide was administered alone or in combination with PD-L1 antibody to mice in which tumors were induced using MC38 mouse colon cancer cells (FIG. 9a). […]

[8] = molecular target: T3, recombinant LAG-3 protein (Homo sapiens, UniProt P18627); test: Pull-down with biotin-peptide and streptavidin beads, immunoblotting; recombinant protein; type: binding; settings: biotin-labeled peptides, compared to the control group
T3 construct: purchased Acro Biosystems
T3 sequence (P18627 23-450 limits assumed): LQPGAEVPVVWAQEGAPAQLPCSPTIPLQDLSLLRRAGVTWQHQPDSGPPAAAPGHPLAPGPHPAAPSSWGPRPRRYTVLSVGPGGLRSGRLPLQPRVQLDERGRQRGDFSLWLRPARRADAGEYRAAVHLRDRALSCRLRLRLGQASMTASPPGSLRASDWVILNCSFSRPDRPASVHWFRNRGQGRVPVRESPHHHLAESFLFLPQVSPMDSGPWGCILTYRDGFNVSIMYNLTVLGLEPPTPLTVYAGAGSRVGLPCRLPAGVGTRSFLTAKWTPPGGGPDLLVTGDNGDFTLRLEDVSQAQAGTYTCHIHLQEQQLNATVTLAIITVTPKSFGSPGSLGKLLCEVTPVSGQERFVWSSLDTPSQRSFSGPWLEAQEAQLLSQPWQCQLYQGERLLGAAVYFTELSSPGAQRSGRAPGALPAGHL
Description: as §2

cell binding by phage binding ELISA (LAG-3 [5]) | detection of LAG-3 proteins after pull-down [6] | detection of LAG-3 protein after pull-down [8] | SMILES | binding of peptide to LAG-3 expressing cells (LAG-3 [1]) | binding of peptide after LAG-3 blocking antibody (LAG-3 [2]) | binding of peptide to stimulated Jurkat T cells (LAG-3 [3]) | binding strength of peptide after LAG-3 blocking antibody (LAG-3 [4]) | IL-2 secretion (Jurkat T cells) | cancer growth, single administration [7]
 |  |  | CC[C@H](C)[C@@H]1NC(=O)[C@@H](N)CSSC[C@@H](C(=O)O)NC(=O)[C@H](C(C)C)NC(=O)[C@H](C)NC(=O)[C@@H]2CCCN2C(=O)[C@H](CC(=O)O)NC(=O)[C@H](CC(N)=O)NC(=O)[C@H](CCCNC(=N)N)NC1=O [LAG3Pep-1] | bind more strongly | reduced | more LAG-3Pep-1 and LAG-3Pep-2 peptides were bound | reduced |  | 
highest level of binding | more LAG-3 proteins were detected | more detection of LAG-3 protein | CC(C)C[C@H](NC(=O)[C@@H](NC(=O)[C@H](CO)NC(=O)[C@@H](N)CS)C(C)C)C(=O)N[C@@H](CC(N)=O)C(=O)N[C@@H](C)C(=O)N[C@@H](CO)C(=O)NCC(=O)N[C@@H](CS)C(=O)O [LAG3Pep-2] | bind more strongly | reduced | more LAG-3Pep-1 and LAG-3Pep-2 peptides were bound | reduced | significantly increased | partially inhibited
